# In US8252294B2, “Methods of screening for compounds that inhibit the biosynthesis of GPI in malaria parasites” (Eisai R&D Management Co., Ltd., priority 2002, dated 2012):
# Tests used:
# opfGWT1-expressing yeast = assay: Growth inhibition of GWT1-disrupted yeast expressing opfGWT1 (pGAP-opfGWT1), culture turbidity; assay type: cell-based, S. cerevisiae; settings: for culture turbidity at 660 nm: pGAP-opfGWT1 yeast, 30° C., two days
# Protocol: (§1) An expression cassette was constructed by inserting the S. cerevisiae GWT1 terminator, and the S. cerevisiae GAPDH promoter and multi-cloning site into the SacI-KpnI site of the single-copy vector pRS316. S. cerevisiae GWT1 and opfGWT1 were inserted into the multi-cloning site to prepare pGAP-ScGWT1 and pGAP-opfGWT1 plasmids, respectively. These plasmids were introduced into the GWT1 disruptant. Serial two-fold dilutions of compound (1) were prepared using YPAD to make the highest final concentration 50 μg/ml. A 50 μl aliquot of the diluted compound was added to each well of a 96-well plate. Overnight cultures of yeast cells comprising each plasmid were diluted 1000-fold and then a 50 μl aliquot of the dilution was added to each well. The plates were incubated at 30° C. for two days, and then culture turbidity was determined at 660 nm (FIG. 2 and Table 1).
# ScGWT1-expressing yeast = assay: Growth inhibition of GWT1-disrupted yeast expressing S. cerevisiae GWT1 (pGAP-ScGWT1), culture turbidity; assay type: cell-based; settings: for culture turbidity at 660 nm: pGAP-ScGWT1 yeast, 30° C., two days
# Protocol: as §1
# [1] = test system: P. falciparum FCR3 strain; assay: Antimalarial activity in red blood cell culture system (infection rate by Giemsa staining); assay type: cell-based; settings: human red blood cells infected with P. falciparum FCR3, 48 hours, Giemsa staining (FIG. 3)
# Protocol: Specifically, a test compound was dissolved in 100% DMSO, diluted with a medium, and an 80 μl aliquot of the dilution was added to each well of a 96-well culture plate. P. falciparum FCR3 strain was pre-cultured in RPMI1640 medium containing 10% human serum at 37° C., and then 20 μl of the cultured cells (containing 10% red blood cells) was added to each well. At this time, 0.47% of red blood cells were infected. After culturing under 5% O2, 5% CO2, and 90% N2 at 37° C. for 48 hours, the malaria parasites were stained using Giemsa staining. The number of protozoan-infected red blood cells was determined in order to estimate infection rate (FIG. 3).
compound,measurement,setting,value
"CCCCc1ccc(Cc2nccc3ccccc23)cc1 [compound (1), 1-(4-butylbenzyl) isoquinoline]",inhibition at 25 µg/mL,"opfGWT1-expressing yeast; Saccharomyces cerevisiae, opfGWT1-expressing yeast, compound at 25 μg/ml",~50%
same,viability of yeast,"opfGWT1-expressing yeast; opfGWT1-expressing yeast, compound at 50 μg/ml",completely nonviable
same,culture turbidity at 660 nm,opfGWT1-expressing yeast; compound 6.25 μg/ml,0.6990
same,culture turbidity at 660 nm,opfGWT1-expressing yeast; compound 12.5 μg/ml,0.6910
same,culture turbidity at 660 nm,opfGWT1-expressing yeast; compound 25 μg/ml,0.3630
same,culture turbidity at 660 nm,opfGWT1-expressing yeast; compound 50 μg/ml,0.0530
same,inhibition at 25 µg/mL,"ScGWT1-expressing yeast; Saccharomyces cerevisiae, ScGWT1-expressing yeast, compound at 25 μg/ml",~85%
same,viability of yeast,"ScGWT1-expressing yeast; ScGWT1-expressing yeast, compound at 50 μg/ml",completely nonviable
same,culture turbidity at 660 nm,ScGWT1-expressing yeast; compound 6.25 μg/ml,0.7370
same,culture turbidity at 660 nm,ScGWT1-expressing yeast; compound 12.5 μg/ml,0.6670
same,culture turbidity at 660 nm,ScGWT1-expressing yeast; compound 25 μg/ml,0.1140
same,culture turbidity at 660 nm,ScGWT1-expressing yeast; compound 50 μg/ml,0.0420
"CCCCc1ccc(Cc2nccc3ccccc23)c(O)c1 [compound (3), 5-butyl-2-(1-isoquinolylmethyl) phenol]",antimalarial activity (infection rate of red blood cells),[1],strong antimalarial activity
"COc1cccnc1Cc1ccc(Br)cc1F [compound (4), 2-(4-bromo-2-fluorobenzyl)-3-methoxypyridine]",antimalarial activity (infection rate of red blood cells),[1],lowest activity
